System: bioluminescent S. aureus Xen29
Test: Kirby-Bauer disc diffusion test of antibiotic-loaded RSFPs
Type: cell-based
Details: zones of inhibition on XEN29 cultures after 12 hours, vs blank RSFPs
Description: Antimicrobial activity of tobramycin sulfate (TS), gentamicin sulfate (GS) and kanamycin sulfate (KS) encapsulated in RSFPs sized 100-500 mcm was assessed by Kirby-Bauer disc diffusion tests, performed according to methods outlined in the NCCLS Approved Standard M2-A7. A stock suspension of bioluminescent S. aureus Xen29 was prepared in sterile physiological solution and turbidity (expressed as optical density; OD) was adjusted against the McFahrland standard to match the 0.5 level. A sterilized cotton swab was immersed in the bacterial suspension, and a lawn of bacteria was applied on the Luria Bertani (LB) plates. A 10-mm biopsy punch was used to cut two circular fragments from each of the freshly infected plates, and both fragments were coated with antibiotic-loaded RSFPs by quick blotting against the pool of particles. The freshly mounted samples were inserted […] II system (Caliper life Science, America). The exposure time (1 s), excitation filter (430 nm), and emission filter with emission wavelength from 575 to 650 nm (DsRed) were set prior to detection.

Substance	post-processing antimicrobial activity (antibiotic function) of cryoencapsulated antibiotics
gentamicin sulfate [GS]	preserved
tobramycin sulfate [TS]	preserved

— patent US20220125930A1, “SYSTEM AND METHOD FOR FABRICATION OF LARGE, POROUS DRUG-SILK MATERIALS USING CRYOGRANULATION” (Trustees of Tufts College, priority 2019, published 2022)
